Measurements: patent US12145923B2, “Tetrahydroisoquinoline compound, preparation method therefor, pharmaceutical composition containing same, and use thereof” (SHANGHAI INSTITUTE OF MATERIA MEDICA, CHINESE ACADEMY OF …, priority 2018, dated 2024)
pIC50: −log10 of the molar value. Several values for one entry are separate records, joined by “and”; a condition that tells them apart may be missing. Identical values can stand only once. Like-named read-outs stand apart in the source and are kept apart here.

Experiments:
[1] = Cytotoxicity on RAW 264.7 cells (CCK-8 method); assay type: cell-based, mouse; conditions: mouse, RAW 264.7 cells; drug concentration required to cause median cytotoxicity, RAW 264.7
Method: (§1) Mouse RAW 264.7 cells were purchased from American Type Culture Collection (Manassas, VA, USA), and cultivated in DMEM culture medium (Hyclone, South Logan, UT, USA) containing 10% fetal bovine serum (Hyclone, South Logan, UT, USA). Cells were collected and counted before use, and inoculated in a 96-well plate (Corning, NY, USA) at 1×10^5/well. […] 20 μl of CCK-8 solution (Dojindo, Kumamoto, Japan) was added at 30 min before the end of the culture. After the cultivation was ended, the absorbance OD value was measured at 450 nm (reference 650 nm) on amicroplate reader (Molecular Devices, Sunnyvale, CA, USA). The toxicity of the compound on RAW 264.7 cells was calculated by dividing the OD value of the test sample by the OD value of the cell control well, which was labeled as the cell survival rate M %.

[2] = tested on: RAW 264.7 cells; experiment: Cytotoxicity on RAW 264.7 cells (CCK-8 method); assay type: cell-based, mouse
Method: as §1

[3] = biological target: Human PDE4D catalytic domain (Homo sapiens (Human), UniProt Q08499); experiment: Scintillation Proximity Assay (SPA), inhibition of PDE4D catalytic domain activity; assay type: biochemical; conditions: for inhibition at 1 µM: read-out: PDE4D enzyme activity inhibition rate %; for IC50: PDE4D, unit given as mM, read-out: IC50
Method: The scintillation Proximity Assay (SPA) method was used to determine the inhibitory effect of compounds on the activity of PDE4D catalytic domain. Human PDE4D catalytic domain protein was obtained by expression and purification in E. coli. […] [^3H]-cAMP, scintillation beads (RPNQO150, Perkin Elmer), and 96-well scintillation microplates (Isoplate-96, Perkin Elmer) were purchased from Perkin Elmer Company.
Finally, 10 μl [^3H]-cAMP (0.005 μCi/μl) was added and incubated for 30 min at 30° C. in a water bath. 50 μl SPA beads was added to quench the reaction, shaked appropriately, and stood for 20 minutes. A microplate scintillation counter was used.

[4] = tested on: TNF-α secretion in PBMC; experiment: Inhibition of LPS-stimulated TNF-α secretion in PBMC (ELISA); assay type: cell-based; conditions: Homo sapiens; for inhibition at 1 µM / inhibition at 10 µM: read-out: Inhibition rate %
From the text: According to the difference in cell density in human blood, PBMC (peripheral blood mononuclear cell, PBMC) was directly separated and purified by gradient centrifugation using lymphocyte separation fluid. The cell type was mononuclear cells in blood, mainly including lymphocytes (T/B), monocytes, macrophages, dendritic cells and other minor cell types, of which lymphocytes account for a large part, which can directly in vitro simulate the blood immune environment.
PBMC cells isolated from human blood were implanted into 96-well plates at 2*10^5/ml; compounds in gradients were added, with at least three replicates for each gradient; After the PBMCs were incubated at 37° C., 5% CO2 for 1 hour, LPS was added (the final concentration was 10 ug/ml) to stimulate PBMC to express TNF-α, and incubated for another 18-20 h at 37° C., 5% C02. The 96-well plate was collected. The background control with no stimulant and stimulation control wells were also set, with a total volume of 200 μl. The culture supernatant was collected by centrifugation, and the expression level of TNF-α in the culture supernatant was detected by ELISA.

[5] = tested on: tumor necrosis factor-α secretion in RAW 264.7 cells; experiment: Inhibition of LPS-stimulated tumor necrosis factor-α secretion in RAW 264.7 cells (ELISA); assay type: cell-based, mouse; conditions: Mus musculus; for inhibition at 0.5 µM / inhibition at 5 µM / inhibition at 50 µM: RAW264.7, 4 h, read-out: Tumor necrosis factor-α inhibition rate/%
Method: After the activation by bacterial lipopolysaccharide (LPS), various inflammatory mediators such as tumor necrosis factor-α will be released; Phosphodiesterase PDE4 is also expressed in macrophages, and the inhibitory activity of the compound on phosphodiesterase PDE4 can be reflected by detecting the secretion of tumor necrosis factor-α.
Under the stimulation of 1 μg/ml LPS (L5886, Sigma, St. Louis, MO, USA), the cells were cultured in a 37° C., 5% CO2 incubator for 4 h. The background control with no stimulant and stimulation control wells were also set, with a total volume of 200 μl. The culture supernatant was collected by centrifugation, and the secretion level of tumor necrosis factor-α in the culture supernatant was detected by enzyme-linked immunosorbent assay. The tumor necrosis factor-α detection kit was purchased from BD Pharmingen (San Diego, CA, USA).

[6] = tested on: acute inflammation model of mouse back air sac; experiment: Acute inflammation model of mouse back air sac (carrageenan); assay type: in vivo; conditions: oral gavage 5 mg/kg
Method: On the first day of the experiment, mice were subcutaneously injected with 3 ml of air on the back, and subcutaneously injected with 1.5 ml of air on the back on day 3, and subcutaneously injected with 1 ml of 2% carrageenan (Sigma-Aldrich, St. Louis, MO, USA) on the back on day 6 for sensitization. 4 hours after sensitization, secretion in the air sac was lavaged with phosphate buffer solution. The lavage fluid was used for white blood cell count and inflammatory factor detection. […] Tumor necrosis factor-α and interleukin-6 detection kits were purchased from BD Pharmingen (San Diego, CA, USA).

Chain of Human PDE4D catalytic domain (Q08499 386-715): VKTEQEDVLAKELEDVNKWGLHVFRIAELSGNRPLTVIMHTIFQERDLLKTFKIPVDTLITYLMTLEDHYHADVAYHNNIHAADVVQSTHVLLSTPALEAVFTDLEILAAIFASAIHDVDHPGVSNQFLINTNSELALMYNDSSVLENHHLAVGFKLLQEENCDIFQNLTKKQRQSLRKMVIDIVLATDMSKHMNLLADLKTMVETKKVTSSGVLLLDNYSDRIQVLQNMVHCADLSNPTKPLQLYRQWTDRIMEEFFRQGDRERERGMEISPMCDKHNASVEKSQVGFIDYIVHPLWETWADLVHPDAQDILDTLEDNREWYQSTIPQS

SMILES | inhibition at 1 µM ([3]; Compound concentration: 1 μM) | Cell survival rate/% ([2]; RAW 264.7, 0.5 μM) | Cell survival rate/% ([2]; RAW 264.7, 5 μM) | Cell survival rate/% ([2]; RAW 264.7, 50 μM) | inhibition at 1 µM ([4]; TNF-α secretion in PBMC, 1 μM) | inhibition at 10 µM ([4]; TNF-α secretion in PBMC, 10 μM) | inhibition at 0.5 µM ([5]; RAW 264.7, 0.5 μM) | inhibition at 5 µM ([5]; RAW 264.7, 5 μM) | inhibition at 50 µM ([5]; RAW 264.7, 50 μM) | further results
COc1cc2c(cc1OC)[C@H](CCc1c[nH]c3ccccc13)N(C=O)CC2 [(S)-A1, (S)-1-(2-(1H-indol-3-yl)ethyl)-6,7-dimethoxy-3,4-dihydroisoquinoline-2(1H)-formaldehyde] | – | 112.3% and 103% | 126.4% and 100.2% | 88.8% and 102% | – | – | – | – | – | CC50 at 4 h [1]: > 50 µM
COc1cc2c(cc1OC1CCCC1)[C@H](CCc1c[nH]c3cc(C)ccc13)N(C=O)CC2 [(S)-C3, (S)-7-(cyclopentyloxy)-6-methoxy-1-(2-(6-methyl-1H-indol-3-yl)ethyl)-3,4-dihydroisoquinoline-2(1H)-formaldehyde] | 24.1% | 88.2% | 100% | 89.2% | 12.1% | 79.2% | 6.3% | 6% | 95.1% | –
COc1cc2c(cc1OC)[C@H](CCc1c[nH]c3cc(C)ccc13)N(C=O)CC2 [(S)-C5, (S)-6,7-dimethoxy-1-(2-(6-methyl-1H-indol-3-yl)ethyl)-3,4-dihydroisoquinoline-2(1H)-formaldehyde] | – | 98% | 109.4% | 93.4% | – | – | – | – | – | secretion level of interleukin-6 in lavage [6]: reduce; secretion level of tumor necrosis factor-α in lavage [6]: reduce; inflammatory response ([6]; 24 h and 1 h before sensitization): significantly reduce
COc1cc2c(cc1OC)[C@H](CCc1c[nH]c3cc(F)ccc13)N(C=O)CC2 [(S)-C6, (S)-1-(2-(6-fluoro-1H-indol-3-yl)ethyl)-6,7-dimethoxy-3,4-dihydroisoquinoline-2(1H)-formaldehyde] | – | 108.6% | 118.4% | 93.7% | – | – | – | – | – | CC50 at 4 h [1]: > 50 µM
CCOc1cc([C@@H](CS(C)(=O)=O)N2C(=O)c3cccc(NC(C)=O)c3C2=O)ccc1OC [Apremilast, reference compound] | – | – | – | – | – | – | – | – | – | CC50 at 4 h [1]: > 10 µM; pIC50 ([5]; RAW264.7, RAW 264.7): 5.38
COc1cc2c(cc1OC1CCCC1)C(CCc1c[nH]c3ccccc13)N(C=O)CC2 (stereo not drawn) [Compound A2, 1-(2-(1H-indol-3-yl)ethyl)-7-(cyclopentyloxy)-6-metthoxy-3,4-dihydroisoquinoline-2(1H)-formaldehyde] | 19.2% | 111.6% | 113% | 55.1% | – | 43% | 9.7% | -4.4% | 99.4% | IC50 [3]: 0.00299 mM
COc1cc2c(cc1OCc1ccccc1)C(CCc1c[nH]c3ccccc13)N(C=O)CC2 (stereo not drawn) [Compound A5, 1-(2-(1H-indol-3-yl)ethyl)-7-(benzyloxy)-6-methoxy-3,4-dihydroisoquinoline-2(1H)-formaldehyde] | 10.8% | 118.7% | 120.8% | 111.3% | – | 23.8% | -0.2% | -8.1% | 79.3% | –
COC(=O)CN1CCc2cc(OC)c(OC)cc2C1CCc1c[nH]c2ccccc12 (stereo not drawn) [Compound B5, methyl-2-(1-(2-(1H-indol-3-yl)ethyl)-6,7-dimethoxy-3,4-dihydroisoquinoline-2(1H)-yl) acetate] | – | 86% | 88.2% | 103.8% | – | – | – | – | – | inhibition at 1 µM [3]: 39.1%; inhibition at 1 µM ([4]; PBMC): 21.7%; inhibition at 10 µM ([4]; PBMC): 55.2%; inhibition at 0.5 µM [5]: -2.1%; inhibition at 5 µM [5]: 20%; inhibition at 50 µM [5]: 47.9%
COc1cc2c(cc1OC)C(CCc1c[nH]c3ccccc13)N(CC1CCOCC1)CC2 (stereo not drawn) [Compound B7, 1-(2-(1H-indol-3-yl)ethyl)-6,7-dimethoxy-2-((tetrahydro-2H-pyran-4-yl)methyl)-1,2,3,4-tetrahydroisoquinoline] | 6.7% | 98.1% | 114.1% | 122.6% | – | 36.6% | 4.3% | 2.3% | 82.2% | –
COc1cc2c(cc1OC1CCCC1)C(CCc1c[nH]c3ccc(Br)cc13)N(C=O)CC2 (stereo not drawn) [Compound C1, 1-(2-(5-bromo-1H-indol-3-yl)ethyl)-7-(cyclopentyloxy)-6-methoxy-3,4-dihydroisoquinoline-2(1H)-formaldehyde] | – | 100.9% | 125.1% | 110.5% | – | – | – | – | – | pIC50 [3]: 5.82; inhibition at 1 µM [3]: 26.4%; inhibition at 1 µM ([4]; PBMC): 27.1%; inhibition at 10 µM ([4]; PBMC): 72.4%; inhibition at 0.5 µM [5]: 2.8%; inhibition at 5 µM [5]: -5.2%; inhibition at 50 µM [5]: 33.7%

Further lines, with some results ahead:

inhibition at 1 µM ([3]; Compound concentration: 1 μM) | SMILES | Cell survival rate/% ([2]; RAW 264.7, 0.5 μM) | Cell survival rate/% ([2]; RAW 264.7, 5 μM) | Cell survival rate/% ([2]; RAW 264.7, 50 μM) | inhibition at 1 µM ([4]; TNF-α secretion in PBMC, 1 μM) | inhibition at 10 µM ([4]; TNF-α secretion in PBMC, 10 μM) | inhibition at 0.5 µM ([5]; RAW 264.7, 0.5 μM) | inhibition at 5 µM ([5]; RAW 264.7, 5 μM) | inhibition at 50 µM ([5]; RAW 264.7, 50 μM) | further results
30.7% | COc1cc2c(cc1OC)C(CCc1c[nH]c3ccccc13)N(C(=O)c1ccncc1)CC2 (stereo not drawn) [Compound B1] | 78% | 74.9% | 78.8% | 39.8% | 58.5% | -2.4% | -17.8% | 67.9% | –
19.2% | COCCN1CCc2cc(OC)c(OC)cc2C1CCc1c[nH]c2ccccc12 (stereo not drawn) [Compound B2, 1-(2-(1H-indol-3-yl)ethyl)-6,7-dimethoxy-2-(2-methoxyethyl)-1,2,3,4-tetrahydroisoquinoline] | 88.3% | 83.5% | 71.4% | – | 25.7% | 6.2% | 18.8% | 83.9% | –
16.4% | COc1cc2c(cc1OC)C(CCc1c[nH]c3ccccc13)N(C(=O)C1CCOCC1)CC2 (stereo not drawn) [Compound B3, (1-(2-(1H-indol-3-yl)ethyl)-6,7-dimethoxy-3,4-dihydroisoquinoline-2(1H)-yl)(tetrahydro-2H-pyran-4-yl)ketone] | 97.7% | 113.9% | 79.6% | 33.3% | 60.2% | 4.4% | 10.8% | 62.5% | –
82.6% | COCC(=O)N1CCc2cc(OC)c(OC)cc2C1CCc1c[nH]c2ccccc12 (stereo not drawn) [Compound B4, 1-(1-(2-(1H-indol-3-yl)ethyl)-6,7-dimethoxy-3,4-dihydroisoquinoline-2(1H)-yl)-2-methoxyethane-1-one] | 116.6% | 82.7% | 71.5% | 44.1% | 89.1% | -9.2% | -11% | 54.5% | IC50 [3]: 0.0003 mM; pIC50 ([4]; TNF-α secretion in PBMC, read-out: IC50): 5.10
19.5% | COc1cc2c(cc1OC)C(CCc1c[nH]c3ccccc13)N(CC(F)(F)F)CC2 (stereo not drawn) [Compound B6, 1-(2-(1H-indol-3-yl)ethyl)-6,7-dimethoxy-2-(2,2,2-trifluoroethyl)-1,2,3,4-tetrahydroisoquinoline] | 117.3% | 87% | 95.3% | – | -23.2% | 8.2% | -7.1% | 67.5% | –
68.5% | COc1cc2c(cc1OC)C(CCc1c[nH]c3ccccc13)N(CCS(C)(=O)=O)CC2 (stereo not drawn) [Compound B8, 1-(2-(1H-indol-3-yl)ethyl)-6,7-dimethoxy-2-(2-(methylsulfonyl)ethyl)-1,2,3,4-tetrahydroisoquinoline] | 113.4% | 100.7% | 100.5% | 31.6% | 77.8% | 33.6% | 36.1% | 31.8% | IC50 [3]: 0.00057 mM
21.5% | COc1cc2c(cc1OC1CCCC1)C(CCc1c[nH]c3ccc(C)cc13)N(C=O)CC2 (stereo not drawn) [Compound C2, 7-(cyclopentyloxy)-6-methoxy-1-(2-(5-methyl-1H-indol-3-yl)ethyl)-3,4-dihydroisoquinoline-2(1H)-formaldehyde] | 112.4% | 106.3% | 62.7% | 15.8% | 52.4% | -18.2% | -24.5% | 97.2% | –
6.4% | COc1cc2c(cc1OC1CCCC1)C(CCc1c[nH]c3cc(C)ccc13)N(C=O)CC2 (stereo not drawn) [Compound C3, 7-(cyclopentyloxy)-6-methoxy-1-(2-(6-methyl-1H-indol-3-yl)ethyl)-3,4-dihydroisoquinoline-2(1H)-formaldehyde] | 115.1% | 120.5% | 112.6% | – | 36.4% | -0.9% | 5.9% | 59.7% | –
